Results published in ChEMBL document CHEMBL3046389, “Synthesis and biological evaluation of novel hydroquinone dimethyl ethers as potential anticancer and antimicrobial agents” (2013).
Values after ≈ are worked out from the molar mass of the structure shown.

Legend:
Assay type in all cases: functional
HCC 2998 [1] = assay: Growth inhibition of Homo sapiens (human) HCC2998 cells at 10 uM after 48 hr by SRB assay; settings: HCC 2998, 48 h, read-out: GI
SNB-19 [2] = assay: Anticancer activity against Homo sapiens (human) SNB19 cells after 48 hr by SRB assay; settings: SNB-19, 48 h; for CC50: read-out: LC50 (the source's name)
SK-OV-3 = assay: Growth inhibition of Homo sapiens (human) SKOV3 cells at 10 uM after 48 hr by SRB assay; settings: SK-OV-3, 48 h, read-out: GI
UO-31 = assay: Anticancer activity against Homo sapiens (human) UO31 cells after 48 hr by SRB assay; settings: UO-31, 48 h
786-0 = assay: Anticancer activity against Homo sapiens (human) 786-0 cells after 48 hr by SRB assay; settings: 786-0, 48 h; for CC50: read-out: LC50 (the source's name)
KM12 = assay: Anticancer activity against Homo sapiens (human) KM12 cells after 48 hr by SRB assay; settings: KM12, 48 h; for CC50: read-out: LC50 (the source's name)
HL-60(TB) = assay: Anticancer activity against Homo sapiens (human) HL-60(TB) cells after 48 hr by SRB assay; settings: HL-60, 48 h; for CC50: read-out: LC50 (the source's name)
NCI-H460 = assay: Growth inhibition of Homo sapiens (human) NCI-H460 cells at 10 uM after 48 hr by SRB assay; settings: NCI-H460, 48 h, read-out: GI
LOX IMVI = assay: Growth inhibition of Homo sapiens (human) LOXIMVI cells at 10 uM after 48 hr by SRB assay; settings: read-out: GI
HCC 2998 [3] = assay: Anticancer activity against Homo sapiens (human) HCC2998 cells after 48 hr by SRB assay; settings: HCC 2998, 48 h; for CC50: read-out: LC50 (the source's name)
MOLT-4 = assay: Anticancer activity against Homo sapiens (human) MOLT4 cells after 48 hr by SRB assay; settings: MOLT-4, 48 h; for CC50: read-out: LC50 (the source's name)
Pseudomonas aeruginosa = assay: Antimicrobial activity against Pseudomonas aeruginosa ATCC 10145 after 48 hr by two-fold serial broth dilution method; settings: ATCC 10145, 48 h
Hs-578T = assay: Anticancer activity against Homo sapiens (human) Hs 578T cells after 48 hr by SRB assay; settings: for CC50: read-out: LC50 (the source's name)
OVCAR-4 = assay: Anticancer activity against Homo sapiens (human) OVCAR4 cells after 48 hr by SRB assay; settings: OVCAR-4, 48 h; for CC50: read-out: LC50 (the source's name)
NCI-H522 = assay: Anticancer activity against Homo sapiens (human) NCI-H522 cells after 48 hr by SRB assay; settings: NCI-H522, 48 h; for CC50: read-out: LC50 (the source's name)
DU-145 = assay: Anticancer activity against Homo sapiens (human) DU145 cells after 48 hr by SRB assay; settings: DU-145, 48 h
HCT-116 = assay: Growth inhibition of Homo sapiens (human) HCT116 cells at 10 uM after 48 hr by SRB assay; settings: HCT-116, 48 h, read-out: GI
T47D = assay: Anticancer activity against Homo sapiens (human) T47D cells after 48 hr by SRB assay; settings: for CC50: read-out: LC50 (the source's name)
A549 = assay: Anticancer activity against Homo sapiens (human) A549/ATCC cells after 48 hr by SRB assay; settings: A549, 48 h; for CC50: read-out: LC50 (the source's name)
ACHN [4] = assay: Growth inhibition of Homo sapiens (human) ACHN cells at 10 uM after 48 hr by SRB assay; settings: read-out: GI
OVCAR-8 = assay: Growth inhibition of Homo sapiens (human) OVCAR8 cells at 10 uM after 48 hr by SRB assay; settings: OVCAR-8, 48 h, read-out: GI
TK-10 = assay: Growth inhibition of Homo sapiens (human) TK10 cells at 10 uM after 48 hr by SRB assay; settings: TK-10, 48 h, read-out: GI
ACHN [5] = assay: Anticancer activity against Homo sapiens (human) ACHN cells after 48 hr by SRB assay; settings: for CC50: read-out: LC50 (the source's name)
OVCAR-3 = assay: Anticancer activity against Homo sapiens (human) OVCAR3 cells after 48 hr by SRB assay; settings: OVCAR-3, 48 h
SR = assay: Anticancer activity against Homo sapiens (human) SR cells after 48 hr by SRB assay
U-251 = assay: Growth inhibition of Homo sapiens (human) U251 cells at 10 uM after 48 hr by SRB assay; settings: U-251, 48 h, read-out: GI
SK-MEL-28 = assay: Anticancer activity against Homo sapiens (human) SK-MEL-28 cells after 48 hr by SRB assay; settings: SK-MEL-28, 48 h
K562 = assay: Anticancer activity against Homo sapiens (human) K562 cells after 48 hr by SRB assay; settings: K562, 48 h; for CC50: read-out: LC50 (the source's name)
MDA-MB-468 = assay: Growth inhibition of Homo sapiens (human) MDA-MB-468 cells at 10 uM after 48 hr by SRB assay; settings: MDA-MB-468, 48 h, read-out: GI
IGROV-1 = assay: Growth inhibition of Homo sapiens (human) IGROV1 cells at 10 uM after 48 hr by SRB assay; settings: IGROV-1, 48 h, read-out: GI
NCI-H23 = assay: Growth inhibition of Homo sapiens (human) NCI-H23 cells at 10 uM after 48 hr by SRB assay; settings: NCI-H23, 48 h, read-out: GI
HCT-15 = assay: Growth inhibition of Homo sapiens (human) HCT15 cells at 10 uM after 48 hr by SRB assay; settings: HCT-15, 48 h, read-out: GI
SNB-19 [6] = assay: Growth inhibition of Homo sapiens (human) SNB19 cells at 10 uM after 48 hr by SRB assay; settings: SNB-19, 48 h, read-out: GI
[7] = read-out: LC50 (the source's name)

Structure (SMILES): COc1ccc(OC)c(/C=C/c2nnc(Nc3ccc(Cl)cc3)o2)c1
- inhibition of growth at 10 µM (HCC 2998 [1]): 44.6%
- GI50 (SNB-19 [2]): 13.8 µM
- TGI (SNB-19 [2]): > 100 µM
- CC50 (SNB-19 [2]): > 100 µM
- inhibition of growth at 10 µM (SK-OV-3): 67.1%
- GI50 (UO-31): 3.13 µM
- LC50 (50% lethal concentration) (UO-31): 78 µM
- TGI (UO-31): 12.6 µM
- GI50 (786-0): 2.67 µM
- TGI (786-0): 7.6 µM
- CC50 (786-0): 55.3 µM
- GI50 (KM12): 17.4 µM
- TGI (KM12): > 100 µM
- CC50 (KM12): > 100 µM
- GI50 (HL-60(TB)): > 100 µM
- TGI (HL-60(TB)): > 100 µM
- CC50 (HL-60(TB)): > 100 µM
- inhibition of growth at 10 µM (NCI-H460): 84.5%
- inhibition of growth at 10 µM (LOX IMVI): 32.3%
- GI50 (HCC 2998 [3]): > 100 µM
- TGI (HCC 2998 [3]): > 100 µM
- CC50 (HCC 2998 [3]): > 100 µM
- GI50 (MOLT-4): > 100 µM
- TGI (MOLT-4): > 100 µM
- CC50 (MOLT-4): > 100 µM
- MBC (Pseudomonas aeruginosa): 100 µg/mL (≈ 279 µM)
- MIC (Pseudomonas aeruginosa): 100 µg/mL (≈ 279 µM)
- GI50 (Hs-578T): 2.71 µM
- TGI (Hs-578T): 8.01 µM
- CC50 (Hs-578T): > 100 µM
- GI50 (OVCAR-4): 2.44 µM
- TGI (OVCAR-4): 6.76 µM
- CC50 (OVCAR-4): > 100 µM
- GI50 (NCI-H522): 7.13 µM
- TGI (NCI-H522): 83.7 µM
- CC50 (NCI-H522): > 100 µM
- GI50 (DU-145): 11.4 µM
- TGI (DU-145): 36.9 µM
- CC50 (DU-145; [7]): > 100 µM
- inhibition of growth at 10 µM (HCT-116): 78.1%
- GI50 (T47D): 2.54 µM
- TGI (T47D): > 100 µM
- CC50 (T47D): > 100 µM
- GI50 (A549): 3.67 µM
- TGI (A549): 17.8 µM
- CC50 (A549): 78.6 µM
- inhibition of growth at 10 µM (ACHN [4]): 67.4%
- inhibition of growth at 10 µM (OVCAR-8): 33.3%
- inhibition of growth at 10 µM (TK-10): 60.9%
- GI50 (ACHN [5]): 3.29 µM
- TGI (ACHN [5]): 19.9 µM
- CC50 (ACHN [5]): > 100 µM
- GI50 (OVCAR-3): 3.55 µM
- LC50 (OVCAR-3): > 100 µM
- TGI (OVCAR-3): 15.9 µM
- GI50 (SR): 48.2 µM
- TGI (SR): > 100 µM
- CC50 (SR; [7]): > 100 µM
- inhibition of growth at 10 µM (U-251): 58.2%
- GI50 (SK-MEL-28): 26.8 µM
- LC50 (concentration killing 50% of cells) (SK-MEL-28): > 100 µM
- TGI (SK-MEL-28): > 100 µM
- GI50 (K562): 92.8 µM
- TGI (K562): > 100 µM
- CC50 (K562): > 100 µM
- inhibition of growth at 10 µM (MDA-MB-468): 34%

Structure (SMILES): COc1ccc(OC)c(/C=C/C(=O)N/N=C/c2ccccc2)c1
- inhibition of growth at 10 µM (IGROV-1): 61.5%
- inhibition of growth at 10 µM (NCI-H23): 34.9%
- inhibition of growth at 10 µM (HCC 2998 [1]): 33.6%
- GI50 (SNB-19 [2]): 4.12 µM
- TGI (SNB-19 [2]): > 100 µM
- CC50 (SNB-19 [2]): > 100 µM
- inhibition of growth at 10 µM (SK-OV-3): 40%
- GI50 (UO-31): 5.9 µM
- LC50 (50% lethal concentration) (UO-31): > 100 µM
- TGI (UO-31): 85.5 µM
- GI50 (786-0): 7 µM
- TGI (786-0): 72.5 µM
- CC50 (786-0): > 100 µM
- GI50 (KM12): 0.834 µM
- TGI (KM12): 3.75 µM
- CC50 (KM12): 29.4 µM
- GI50 (HL-60(TB)): 2.03 µM
- TGI (HL-60(TB)): 13.7 µM
- CC50 (HL-60(TB)): > 100 µM
- inhibition of growth at 10 µM (NCI-H460): 86.5%
- inhibition of growth at 10 µM (LOX IMVI): 57.9%
- inhibition of growth at 10 µM (HCT-15): 58%
- GI50 (HCC 2998 [3]): 2.35 µM
- TGI (HCC 2998 [3]): 21 µM
- CC50 (HCC 2998 [3]): 94.5 µM
- GI50 (MOLT-4): 4.45 µM
- TGI (MOLT-4): > 100 µM
- CC50 (MOLT-4): > 100 µM
- MBC (Pseudomonas aeruginosa): 100 µg/mL (≈ 322 µM)
- MIC (Pseudomonas aeruginosa): 50 µg/mL (≈ 161 µM)
- GI50 (Hs-578T): 9.07 µM
- TGI (Hs-578T): > 100 µM
- CC50 (Hs-578T): > 100 µM
- GI50 (OVCAR-4): 14.3 µM
- TGI (OVCAR-4): > 100 µM
- CC50 (OVCAR-4): > 100 µM
- GI50 (NCI-H522): 1.57 µM
- TGI (NCI-H522): 41.7 µM
- CC50 (NCI-H522): > 100 µM
- inhibition of growth at 10 µM (HCT-116): 85.8%
- GI50 (T47D): 4.86 µM
- TGI (T47D): > 100 µM
- CC50 (T47D): > 100 µM
- GI50 (A549): 4.29 µM
- TGI (A549): > 100 µM
- CC50 (A549): > 100 µM
- inhibition of growth at 10 µM (ACHN [4]): 37.2%
- inhibition of growth at 10 µM (OVCAR-8): 45.2%
- inhibition of growth at 10 µM (SNB-19 [6]): 52.1%
- inhibition of growth at 10 µM (TK-10): 43.3%
- GI50 (ACHN [5]): 9.66 µM
- TGI (ACHN [5]): > 100 µM
- CC50 (ACHN [5]): > 100 µM
- GI50 (OVCAR-3): 3.15 µM
- LC50 (OVCAR-3): > 100 µM
- TGI (OVCAR-3): > 100 µM
- inhibition of growth at 10 µM (U-251): 56.5%
- GI50 (SK-MEL-28): 8.89 µM
- LC50 (concentration killing 50% of cells) (SK-MEL-28): > 100 µM
- TGI (SK-MEL-28): > 100 µM
- GI50 (K562): 0.488 µM
- TGI (K562): > 100 µM
- CC50 (K562): > 100 µM
- inhibition of growth at 10 µM (MDA-MB-468): 71.9%
